Holding throughout (test): In vitro cytotoxicity, cell proliferation assay (CellTiter-Glo, 96 h)
Assay type in all cases: cell-based
Background: Cellular ATP, detected with luciferase, serves as a proxy for viable cell number.

One test relates to Karpas299 NHL. The note with it: Homo sapiens, KARPAS-299, auristatin free drug. The procedure:
(§1) The cytotoxicity of free drugs and drug conjugates were measured by a cell proliferation assay employing the protocol described in Promega Corp. Technical Bulletin TB288; and Mendoza et al., 2002, Cancer Res. 62:5485-5488), the methods of which are specifically incorporated by reference herein. Briefly, an aliquot of 40 μl of cell culture containing about 400 cells in medium is deposited in each well of a 384-well, opaque-walled plate. A 10 μL aliquot of free drug or drug conjugate is added to the experimental wells and incubated for 96 h and are then equilibrated to room temperature for approximately 30 minutes whereupon a volume of CellTiter-Glo™ reagent equal to the volume of cell culture medium present in each well is added. The contents are mixed for 2 minutes on an orbital shaker to induce cell lysis and the plate is incubated at room temperature for 10 minutes to stabilize the luminescence signal for recordation.

In another test the test system is L540cy HL. The settings on record: auristatin free drug. The procedure:
as §1

The subject of a further test is DEL ALCL. The settings on record: auristatin free drug. The protocol: as §1

*1 amine or outer side, *2 acyl side, *3 side chain or, on linkers, in order; H or OH if unused. Where a SMILES comes first, the peptide text is derived from it. [ ]: non-standard residue; d: D form. The star is where a group is joined. Dolaproine = CO[C@@H]([C@@H]1CCCN1)[C@@H](C)C(=O)O; Dil = CC[C@H](C)[C@H](NC)[C@@H](CC(=O)O)OC; X11 = C[S+]([O-])NC[C@H](N[*:1])C(=O)[*:2]; Met(O2) = CS(=O)(=O)CC[C@H](N)C(=O)O; X9 = CCN([C@@H](CO)C(=O)[*:2])[*:1]; X10 = C[C@H]1OC(=O)N[C@@H]1C(=O)*; Hyp = O=C(O)[C@@H]1C[C@@H](O)CN1; Phe(ol) = N[C@H](CO)Cc1ccccc1; X6 = CN(C)[C@@H](CCO)C(=O)*; X8 = CN1C(=O)OC[C@H]1C(=O)*; X5 = O=C1N[C@H](C(=O)*)CO1; Dap = NC[C@H](N)C(=O)O; Glycolyl = O=C(CO)*; Ms = CS(=O)(=O)*

By IC50 is commonly meant the concentration at which inhibition is half-maximal. In the case of `CC[C@H](C)[C@@H]([C@@H](CC(=O)N1CCC[C@H]1[C@H](OC)[C@@H](C)C(=O)NC(CO)Cc1nccs1)OC)N(C)C(=O)[C@@H](NC(=O)[C@H](CO)N(C)C)C(C)C` (stereo partly drawn) [Example 52], the values for the IC50 with Karpas299 NHL, in the test on L540cy HL and in the test on DEL ALCL were 0.058 µM, 0.438 µM and 0.043 µM, respectively.
On to `CCN[C@@H](CO)C(=O)N[C@H](C(=O)N(C)[C@@H]([C@@H](C)CC)[C@@H](CC(=O)N1CCC[C@H]1[C@H](OC)[C@@H](C)C(=O)N[C@H](CO)Cc1ccccc1)OC)C(C)C` [Example 15] (H-[X9]V[Dil][Dolaproine][Phe(ol)]), for which the IC50 was 0.0023 µM in the test on Karpas299 NHL, 0.0039 µM in the test on L540cy HL and 0.0007 µM in the test with DEL ALCL.
Turning to `CC[C@H](C)[C@@H]([C@@H](CC(=O)N1CCC[C@H]1[C@H](OC)[C@@H](C)C(=O)NC(Cc1ccccc1)c1ncco1)OC)N(C)C(=O)[C@@H](NC(=O)[C@H](CO)N(C)C)C(C)C` (stereo partly drawn) [Example 56], the IC50 in the test on Karpas299 NHL turned out to be 0.0009 µM; in the test on L540cy HL it was 0.024 µM; in the test with DEL ALCL, 0.001 µM.
For `CC[C@H](C)[C@@H]([C@@H](CC(=O)N1CCC[C@H]1[C@H](OC)[C@@H](C)C(=O)N[C@H](C)[C@@H](O)c1ccccc1)OC)N(C)C(=O)[C@@H](NC(=O)[C@@H]1COC(=O)N1C)C(C)C` [Example 37] the same measures were above 1 µM, above 1 µM and above 1 µM.
For `CC[C@H](C)[C@@H]([C@@H](CC(=O)N1CCC[C@H]1[C@H](OC)[C@@H](C)C(=O)N[C@H](CO)Cc1ccccc1)OC)N(C)C(=O)[C@@H](NC(=O)[C@@H]1COC(=O)N1)C(C)C` [Example 40] (X5-V[Dil][Dolaproine][Phe(ol)]), the IC50 with Karpas299 NHL is 0.06 µM; in the test with L540cy HL, 0.442 µM; in the test on DEL ALCL, 0.0123 µM.
In the case of `CC[C@H](C)[C@@H]([C@@H](CC(=O)N1CCC[C@H]1[C@H](OC)[C@@H](C)C(=O)NC(CCO)Cc1ccccc1)OC)N(C)C(=O)[C@@H](NC(=O)[C@H](CO)N(C)C)C(C)C` (stereo partly drawn) [Example 54], the figures for the IC50 with Karpas299 NHL, in the test on L540cy HL and in the test on DEL ALCL were 0.006 µM, 0.274 µM and 0.007 µM, respectively.
For `CC[C@H](C)[C@@H]([C@@H](CC(=O)N1CCC[C@H]1[C@H](OC)[C@@H](C)C(=O)N[C@H](CO)Cc1ccccc1)OC)N(C)C(=O)[C@@H](NC(=O)[C@@H](N)CN[S+](C)[O-])C(C)C` (stereo partly drawn) [Example 48] (H-[X11]V[Dil][Dolaproine][Phe(ol)]) the same measures were 0.11 µM, above 1 µM and 0.041 µM.
As to `CC[C@H](C)[C@@H]([C@@H](CC(=O)N1CCC[C@H]1[C@H](OC)[C@@H](C)C(=O)N[C@H](CO)Cc1ccccc1)OC)N(C)C(=O)[C@@H](NC(=O)[C@@H](N)CNC(=O)CO)C(C)C` [Example 51] (H-[Dap](Glycolyl)V[Dil][Dolaproine][Phe(ol)]), the IC50 was 0.224 µM with Karpas299 NHL, above 1 µM in the test on L540cy HL and 0.093 µM with DEL ALCL.
For `CC[C@H](C)[C@@H]([C@@H](CC(=O)N1CCC[C@H]1[C@H](OC)[C@@H](C)C(=O)N[C@H](CO)Cc1ccccc1)OC)N(C)C(=O)[C@@H](NC(=O)[C@@H](N)CNC(C)=O)C(C)C` [Example 46] (H-[Dap](Ac)V[Dil][Dolaproine][Phe(ol)]), the IC50 was 0.264 µM in the test with Karpas299 NHL, above 1 µM with L540cy HL and 0.141 µM in the test with DEL ALCL.
For `CC[C@H](C)[C@@H]([C@@H](CC(=O)N1CCC[C@H]1[C@H](OC)[C@@H](C)C(=O)N[C@H](CO)Cc1ccccc1)OC)N(C)C(=O)[C@@H](NC(=O)[C@@H](N)CCS(C)(=O)=O)C(C)C` [Example 47] (H-[Met(O2)]V[Dil][Dolaproine][Phe(ol)]) the same measures were above 1 µM, above 1 µM and above 1 µM.
Turning to `CC[C@H](C)[C@@H]([C@@H](CC(=O)N1CCC[C@H]1[C@H](OC)[C@@H](C)C(=O)N[C@H](CO)Cc1ccccc1)OC)N(C)C(=O)[C@@H](NC(=O)[C@H](CCO)N(C)C)C(C)C` [Example 9] (X6-V[Dil][Dolaproine][Phe(ol)]), the IC50 with Karpas299 NHL worked out at 0.0009 µM; in the test with L540cy HL, 0.004 µM; with DEL ALCL it was 0.0008 µM.
For `CC[C@H](C)[C@@H]([C@@H](CC(=O)N1CCC[C@H]1[C@H](OC)[C@@H](C)C(=O)N[C@@H](Cc1ccccc1)c1nccs1)OC)N(C)C(=O)[C@@H](NC(=O)[C@@H]1COC(=O)N1C)C(C)C` [Example 39] the same measures were above 1 µM, above 1 µM and 0.512 µM.
As to `CC[C@H](C)[C@@H]([C@@H](CC(=O)N1CCC[C@H]1[C@H](OC)[C@@H](C)C(=O)N[C@H](CO)Cc1ccccc1)OC)N(C)C(=O)[C@@H](NC(=O)[C@@H](N)[C@@H](C)O)C(C)C` [Example 25] (H-TV[Dil][Dolaproine][Phe(ol)]), the 50% inhibitory concentration (IC50) stood at 0.062 µM in the test on Karpas299 NHL, 0.457 µM in the test on L540cy HL and 0.0189 µM with DEL ALCL.
With `CC[C@H](C)[C@@H]([C@@H](CC(=O)N1CCC[C@H]1[C@H](OC)[C@@H](C)C(=O)N[C@H](CO)Cc1ccccc1)OC)N(C)C(=O)[C@@H](NC(=O)[C@@H]1C[C@@H](O)CN1)C(C)C` [Example 49] (H-[Hyp]V[Dil][Dolaproine][Phe(ol)]), the figures for the half-maximal inhibitory concentration (IC50) in the test with Karpas299 NHL, in the test with L540cy HL and in the test with DEL ALCL were 0.035 µM, 0.076 µM and 0.032 µM, respectively.
Consider `CC[C@H](C)[C@@H]([C@@H](CC(=O)N1CCC[C@H]1[C@H](OC)[C@@H](C)C(=O)N[C@H](CO)Cc1ccccc1)OC)N(C)C(=O)[C@@H](NC(=O)[C@H]1NC(=O)O[C@@H]1C)C(C)C` [Example 42] (X10-V[Dil][Dolaproine][Phe(ol)]), for which the results for the IC50 in the test with Karpas299 NHL, in the test on L540cy HL and in the test with DEL ALCL were 0.064 µM, 0.481 µM and 0.016 µM, respectively.
`CC[C@H](C)[C@@H]([C@@H](CC(=O)N1CCC[C@H]1[C@H](OC)[C@@H](C)C(=O)NC(Cc1ccccc1)c1cccs1)OC)N(C)C(=O)[C@@H](NC(=O)[C@H](CO)N(C)C)C(C)C` (stereo partly drawn) [Example 55]: the values for the concentration for half-maximal inhibition (IC50) in the test with Karpas299 NHL, in the test with L540cy HL and in the test with DEL ALCL were 0.001 µM, 0.016 µM and 0.0008 µM, respectively.
Consider `CC[C@H](C)[C@@H]([C@@H](CC(=O)N1CCC[C@H]1[C@H](OC)[C@@H](C)C(=O)N[C@@H](Cc1ccccc1)C(=O)O)OC)N(C)C(=O)[C@@H](NC(=O)[C@@H]1COC(=O)N1C)C(C)C` [Comparative Example C, reference compound] (X8-V[Dil][Dolaproine]F-OH), for which the IC50 in the test with Karpas299 NHL is 0.218 µM; in the test with L540cy HL, 0.284 µM; in the test on DEL ALCL, 0.342 µM.
For `CC[C@H](C)[C@@H]([C@@H](CC(=O)N1CCC[C@H]1[C@H](OC)[C@@H](C)C(=O)N[C@H](CO)Cc1ccccc1)OC)N(C)C(=O)[C@@H](NC(=O)[C@@H](N)CNS(C)(=O)=O)C(C)C` [Example 50] (H-[Dap](Ms)V[Dil][Dolaproine][Phe(ol)]) the same measures were above 1 µM, above 1 µM and above 1 µM.
For the molecule `CC[C@H](C)[C@@H]([C@@H](CC(=O)N1CCC[C@H]1[C@H](OC)[C@@H](C)C(=O)N[C@H](C)[C@@H](O)c1ccccc1)OC)N(C)C(=O)[C@@H](NC(=O)[C@H]([C@@H](C)O)N(C)C)C(C)C` [Example 10], the IC50 with Karpas299 NHL worked out at 0.0005 µM; in the test with L540cy HL it was 0.003 µM; with DEL ALCL, 0.0004 µM.

Source of the values: patent publication US20240123080A1, “CYTOTOXIC COMPOUNDS AND CONJUGATES THEREOF” (Seagen Inc., priority 2022, published 2024).
